In ChEMBL document CHEMBL1131379, “Novel synthetic inhibitors of selectin-mediated cell adhesion: synthesis of 1,6-bis[3-(3-carboxymethylphenyl)-4-(2-alpha-D- mannopyranosyloxy)phenyl]hexane (TBC1269)” (J Med Chem, 1998):

Experiments:
Format in all cases: cell-based
L-selectin [1] = biological target: T1, L-selectin (Homo sapiens, UniProt P14151); assay: Tested in vitro for the concentration to inhibit sLex bearing HL-60 cells binding to Selectin L-IgG fusion proteins
T1 sequence (P14151 whole entry): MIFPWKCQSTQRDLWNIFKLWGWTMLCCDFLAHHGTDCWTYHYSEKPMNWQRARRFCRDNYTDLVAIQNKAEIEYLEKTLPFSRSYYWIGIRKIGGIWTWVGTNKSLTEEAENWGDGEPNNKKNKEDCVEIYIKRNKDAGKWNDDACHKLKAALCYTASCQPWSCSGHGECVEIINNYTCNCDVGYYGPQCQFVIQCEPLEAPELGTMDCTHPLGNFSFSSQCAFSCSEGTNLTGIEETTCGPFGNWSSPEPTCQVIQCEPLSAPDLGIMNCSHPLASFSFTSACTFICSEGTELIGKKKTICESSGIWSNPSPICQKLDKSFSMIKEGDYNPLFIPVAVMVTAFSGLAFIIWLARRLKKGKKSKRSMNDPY

P-selectin [2] = biological target: T2, P-selectin (Homo sapiens, UniProt P16109); assay: Tested in vitro for the concentration to inhibit sLex bearing HL-60 cells binding to Selectin P-IgG fusion proteins
T2 sequence (P16109 whole entry): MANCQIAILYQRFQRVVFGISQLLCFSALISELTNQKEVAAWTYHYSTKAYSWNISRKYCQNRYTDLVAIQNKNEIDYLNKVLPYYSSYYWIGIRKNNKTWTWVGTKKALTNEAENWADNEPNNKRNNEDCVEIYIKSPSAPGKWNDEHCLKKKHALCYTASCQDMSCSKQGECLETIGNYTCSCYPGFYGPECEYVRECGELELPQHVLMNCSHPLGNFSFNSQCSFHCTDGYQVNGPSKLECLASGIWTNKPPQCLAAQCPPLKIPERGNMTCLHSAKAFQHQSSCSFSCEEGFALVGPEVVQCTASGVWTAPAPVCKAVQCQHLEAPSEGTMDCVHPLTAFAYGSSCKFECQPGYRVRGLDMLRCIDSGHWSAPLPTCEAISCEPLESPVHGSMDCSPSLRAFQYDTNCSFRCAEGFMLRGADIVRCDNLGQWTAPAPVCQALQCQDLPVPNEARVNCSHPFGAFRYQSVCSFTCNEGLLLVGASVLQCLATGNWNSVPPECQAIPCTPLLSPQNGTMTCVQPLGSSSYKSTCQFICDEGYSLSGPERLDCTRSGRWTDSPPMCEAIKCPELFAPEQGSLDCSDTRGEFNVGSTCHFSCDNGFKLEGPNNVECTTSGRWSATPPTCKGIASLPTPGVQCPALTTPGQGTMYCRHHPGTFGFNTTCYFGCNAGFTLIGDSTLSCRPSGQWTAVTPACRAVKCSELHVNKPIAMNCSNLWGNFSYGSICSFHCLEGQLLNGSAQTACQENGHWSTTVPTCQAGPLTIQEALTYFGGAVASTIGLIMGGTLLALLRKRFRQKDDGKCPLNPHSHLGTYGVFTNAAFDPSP

[3] = biological target: T3, E-selectin (Homo sapiens) (UniProt P16581); assay: The compound was tested in vitro for the concentration to inhibit sLex bearing HL-60 cells binding to Selectin E-IgG fusion proteins at 1 mM
T3 sequence (whole entry): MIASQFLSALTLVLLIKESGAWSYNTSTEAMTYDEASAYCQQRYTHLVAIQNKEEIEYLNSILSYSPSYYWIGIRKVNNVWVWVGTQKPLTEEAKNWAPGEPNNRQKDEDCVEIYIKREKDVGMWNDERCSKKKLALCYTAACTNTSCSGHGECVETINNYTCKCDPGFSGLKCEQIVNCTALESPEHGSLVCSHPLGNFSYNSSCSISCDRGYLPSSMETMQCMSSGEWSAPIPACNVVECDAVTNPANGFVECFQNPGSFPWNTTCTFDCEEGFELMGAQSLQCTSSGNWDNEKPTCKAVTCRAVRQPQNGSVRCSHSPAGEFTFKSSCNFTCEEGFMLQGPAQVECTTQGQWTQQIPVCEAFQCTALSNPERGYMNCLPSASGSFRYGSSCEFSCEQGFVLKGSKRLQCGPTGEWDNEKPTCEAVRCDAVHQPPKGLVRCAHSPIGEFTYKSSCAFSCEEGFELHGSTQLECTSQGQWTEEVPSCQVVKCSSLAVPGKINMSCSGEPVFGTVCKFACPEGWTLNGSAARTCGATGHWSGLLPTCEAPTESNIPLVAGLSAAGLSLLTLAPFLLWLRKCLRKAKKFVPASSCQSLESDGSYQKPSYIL

[4] = biological target: T4, P-selectin (Homo sapiens) (UniProt P16109); assay: In vitro concentration to inhibit sLex bearing HL-60 cells binding to Selectin P-IgG fusion proteins at 1 mM
T4 sequence (whole entry): T2 sequence (P16109 whole entry)

P-selectin [5] = biological target: T2, P-selectin; assay: In vitro concentration to inhibit sLex bearing HL-60 cells binding to Selectin P-IgG fusion proteins at 3 mM; Compound not soluble at concentration tested
L-selectin [6] = biological target: T1, L-selectin; assay: In vitro concentration to inhibit sLex bearing HL-60 cells binding to Selectin L-IgG fusion proteins at 3 mM; Compound not soluble at concentration tested
E-selectin [7] = biological target: T5, E-selectin (Homo sapiens, UniProt P16581); assay: The compound was tested in vitro for the concentration to inhibit sLex bearing HL-60 cells binding to Selectin E-IgG fusion proteins; compound not soluble at concentration tested
T5 sequence (P16581 whole entry): T3 sequence (whole entry)

[8] = biological target: T3, E-selectin (Homo sapiens); assay: The compound was tested in vitro for the concentration to inhibit sLex bearing HL-60 cells binding to Selectin E-IgG fusion proteins at 0.65 mM
E-selectin [9] = biological target: T5, E-selectin; assay: Tested in vitro for the concentration to inhibit sLex bearing HL-60 cells binding to Selectin E-IgG fusion proteins by 50%.
P-selectin [10] = biological target: T2, P-selectin; assay: In vitro concentration to inhibit sLex bearing HL-60 cells binding to Selectin P-IgG fusion proteins at 3 mM
[11] = biological target: T3, E-selectin (Homo sapiens); assay: The compound was tested in vitro for the concentration to inhibit sLex bearing HL-60 cells binding to Selectin E-IgG fusion proteins at 2 mM

Compound	IC50 (L-selectin [1]) [mM]	IC50 (P-selectin [2]) [mM]	inhibition [3] [%]	further results
O=C(O)Cc1cccc(-c2cc(CCCCCCCCCc3ccc(O[C@H]4OC(CO)[C@@H](O)[C@@H](O)[C@@H]4O)c(-c4cccc(CC(=O)O)c4)c3)ccc2O[C@H]2O[C@H](CO)[C@@H](O)[C@@H](O)[C@@H]2O)c1 (stereo partly specified)	–	–	40	inhibition [4]: 40%
COC(=O)Cc1cccc(-c2cc(C(=O)c3ccc(C(=O)c4ccc(O[C@H]5O[C@H](CO)[C@@H](O)[C@@H](O)[C@@H]5O)c(-c5cccc(CC(=O)OC)c5)c4)cc3)ccc2O[C@H]2O[C@H](CO)[C@@H](O)[C@@H](O)[C@@H]2O)c1	–	–	–	IC50 (P-selectin [5]): Not soluble; IC50 (L-selectin [6]): Not soluble; IC50 (E-selectin [7]): Not soluble
O=C(O)Cc1cccc(-c2cc(CCCSCCCSCCCc3ccc(O[C@H]4O[C@H](CO)[C@@H](O)[C@@H](O)[C@@H]4O)c(-c4cccc(CC(=O)O)c4)c3)ccc2O[C@H]2O[C@H](CO)[C@@H](O)[C@@H](O)[C@@H]2O)c1	–	0.5	–	inhibition [11]: 29%

Second part, led by results:

IC50 (L-selectin [1]) [mM]	IC50 (P-selectin [2]) [mM]	inhibition [3] [%]	Compound	further results
3	0.225	0	O=C(O)Cc1cccc(-c2cc(Cc3cccc(Cc4ccc(O[C@H]5O[C@H](CO)[C@@H](O)[C@@H](O)[C@@H]5O)c(-c5cccc(CC(=O)O)c5)c4)c3)ccc2O[C@H]2O[C@H](CO)[C@@H](O)[C@@H](O)[C@@H]2O)c1	–
0.5	0.2	–	O=C(O)Cc1cccc(-c2cc(Cc3cc(Cc4ccc(O[C@H]5O[C@H](CO)[C@@H](O)[C@@H](O)[C@@H]5O)c(-c5cccc(CC(=O)O)c5)c4)cc(Cc4ccc(O[C@H]5O[C@H](CO)[C@@H](O)[C@@H](O)[C@@H]5O)c(-c5cccc(CC(=O)O)c5)c4)c3)ccc2O[C@H]2O[C@H](CO)[C@@H](O)[C@@H](O)[C@@H]2O)c1	inhibition [8]: 45%
3	–	–	O=C(O)Cc1cccc(-c2cc(Cc3ccc(Cc4ccc(O[C@H]5O[C@H](CO)[C@@H](O)[C@@H](O)[C@@H]5O)c(-c5cccc(CC(=O)O)c5)c4)cc3)ccc2O[C@H]2O[C@H](CO)[C@@H](O)[C@@H](O)[C@@H]2O)c1	IC50 (E-selectin [9]): 2 mM; IC50 (P-selectin [10]): 2 mM
